# Tests used:
# SW-620 = assay: Cytotoxicity against human SW620 cells; assay type: functional
# [1] = Cytotoxicity against human Hs 578T cells; assay type: functional
# MDA-MB-435 = assay: Cytotoxicity against human MDA-MB-435 cells; assay type: functional
# OVCAR-8 = assay: Cytotoxicity against human OVCAR8 cells; assay type: functional
# CCRF-CEM = assay: Cytotoxicity against human CCRF-CEM cells; assay type: functional
# A549 [2] = assay: Cytotoxicity against human A549 cells; assay type: functional
# SK-MEL-2 = assay: Cytotoxicity against human SK-MEL-2 cells; assay type: functional
# MCF7 = assay: Cytotoxicity against human MCF7 cells; assay type: functional
# HCT-15 = assay: Cytotoxicity against human HCT15 cells; assay type: functional
# SNB-19 = assay: Cytotoxicity against human SNB19 cells; assay type: functional
# SK-OV-3 = assay: Cytotoxicity against human SKOV3 cells; assay type: functional
# [3] = Cytotoxicity against human 786-O cells; assay type: functional
# A549 [4] = assay: Cytotoxicity against human A549 cells after 1 hr compound washout; assay type: functional, cell-based; settings: A549, 1 h
# SF-295 [5] = assay: Cytotoxicity against human SF295 cells after 1 hr compound washout; assay type: functional, cell-based; settings: SF-295, 1 h
# HOP-92 = assay: Cytotoxicity against human HOP92 cells; assay type: functional
# ACHN = assay: Cytotoxicity against human ACHN cells; assay type: functional
# HCC 2998 = assay: Cytotoxicity against human HCC2998 cells; assay type: functional
# UACC-62 = assay: Cytotoxicity against human UACC62 cells; assay type: functional
# MOLT-4 = assay: Cytotoxicity against human MOLT4 cells; assay type: functional
# COLO 205 = assay: Cytotoxicity against human COLO205 cells; assay type: functional
# NCI-H522 = assay: Cytotoxicity against human NCI-H522 cells; assay type: functional
# SF-295 [6] = assay: Cytotoxicity against human SF295 cells; assay type: functional
# A498 = assay: Cytotoxicity against human A498 cells; assay type: functional
# PC-3 = assay: Cytotoxicity against human PC3 cells; assay type: functional
# M14 = assay: Cytotoxicity against human M14 cells; assay type: functional
# NCI-H23 = assay: Cytotoxicity against human NCI-H23 cells; assay type: functional
# HL-60 = assay: Cytotoxicity against human HL60 cells; assay type: functional
# U-251 = assay: Cytotoxicity against human U251 cells; assay type: functional
# SN12C = assay: Cytotoxicity against human SN12C cells; assay type: functional
# IGROV-1 = assay: Cytotoxicity against human IGROV1 cells; assay type: functional
# SK-MEL-5 = assay: Cytotoxicity against human SK-MEL-5 cells; assay type: functional
# A549 [7] = assay: Cytotoxicity against human A549 cells after 48 hrs; assay type: functional, cell-based; settings: A549, 48 h
# T47D = assay: Cytotoxicity against human T47D cells; assay type: functional
# OVCAR-4 = assay: Cytotoxicity against human OVCAR4 cells; assay type: functional
# BT-549 = assay: Cytotoxicity against human BT549 cells; assay type: functional
# SF-295 [8] = assay: Cytotoxicity against human SF295 cells after 48 hrs; assay type: functional, cell-based; settings: SF-295, 48 h
# NCI-H226 = assay: Cytotoxicity against human NCI-H226 cells; assay type: functional
# SR = assay: Cytotoxicity against human SR cells; assay type: functional
# RPMI-8226 = assay: Cytotoxicity against human RPMI8226 cells; assay type: functional
# NCI-H460 = assay: Cytotoxicity against human NCI-H460 cells; assay type: functional
# SNB-75 = assay: Cytotoxicity against human SNB75 cells; assay type: functional
# UACC-257 = assay: Cytotoxicity against human UACC257 cells; assay type: functional
# OVCAR-3 = assay: Cytotoxicity against human OVCAR-3 cells; assay type: functional
# LOX IMVI = assay: Cytotoxicity against human LOXIMVI cells; assay type: functional
# HOP-62 = assay: Cytotoxicity against human HOP62 cells; assay type: functional
# NCI-H322M = assay: Cytotoxicity against human NCI-H322M cells; assay type: functional
# [9] = read-out: pLC50 (the source's name) (converted)
smiles,measurement,setting,value
CC(C)=CCC/C(C)=C/Cc1c(O)cc(/C=C/c2cc(O)c3c(c2)C[C@@H]2C(C)(C)[C@H](O)[C@H](O)C[C@@]2(C)O3)cc1O [SCHWEINFURTHIN A],GI50,SW-620,0.257 µM
same,LC50,SW-620,44.7 µM
same,TGI,SW-620; read-out: pTGI (converted),18.2 µM
same,GI50,[1],0.01 µM
same,CC50,[1]; [9],87.1 µM
same,TGI,[1]; read-out: pTGI (converted),0.759 µM
same,GI50,MDA-MB-435,3.8 µM
same,CC50,MDA-MB-435; [9],74.1 µM
same,TGI,MDA-MB-435; read-out: pTGI (converted),33.1 µM
same,GI50,OVCAR-8,5.13 µM
same,LC50,OVCAR-8,57.5 µM
same,TGI,OVCAR-8; read-out: pTGI (converted),20 µM
same,GI50,CCRF-CEM,0.01 µM
same,LC50,CCRF-CEM,74.1 µM
same,TGI,CCRF-CEM; read-out: pTGI (converted),2.09 µM
same,GI50,A549 [2],0.141 µM
same,LC50 (concentration killing 50% of cells),A549 [2],40.7 µM
same,TGI,A549 [2]; read-out: pTGI (converted),14.1 µM
same,GI50,SK-MEL-2,1.7 µM
same,LC50,SK-MEL-2,42.7 µM
same,TGI,SK-MEL-2; read-out: pTGI (converted),12.9 µM
same,GI50,MCF7,0.0269 µM
same,CC50,MCF7; [9],85.1 µM
same,TGI,MCF7; read-out: pTGI (converted),8.13 µM
same,GI50,HCT-15,1.82 µM
same,LC50,HCT-15,25.7 µM
same,TGI,HCT-15; read-out: pTGI (converted),6.03 µM
same,GI50,SNB-19,0.257 µM
same,LC50,SNB-19,49 µM
same,TGI,SNB-19; read-out: pTGI (converted),20 µM
same,GI50,SK-OV-3,2.69 µM
same,LC50,SK-OV-3,39.8 µM
same,TGI,SK-OV-3; read-out: pTGI (converted),15.8 µM
same,GI50,[3]; 786-0,0.01 µM
same,LC50,[3]; 786-0,19.1 µM
same,TGI,"[3]; 786-0, read-out: pTGI (converted)",3.02 µM
same,IC50,A549 [4],20 µg/mL
same,IC50,SF-295 [5],0.06 µg/mL
same,GI50,HOP-92,2.57 µM
same,LC50,HOP-92,46.8 µM
same,TGI,HOP-92; read-out: pTGI (converted),15.1 µM
same,GI50,ACHN,2.09 µM
same,LC50,ACHN,39.8 µM
same,TGI,ACHN; read-out: pTGI (converted),15.8 µM
same,GI50,HCC 2998,0.501 µM
same,LC50,HCC 2998,33.1 µM
same,TGI,HCC 2998; read-out: pTGI (converted),9.77 µM
same,GI50,UACC-62,0.11 µM
same,LC50,UACC-62,6.31 µM
same,TGI,UACC-62; read-out: pTGI (converted),1.82 µM
same,GI50,MOLT-4,0.0151 µM
same,LC50,MOLT-4,57.5 µM
same,TGI,MOLT-4; read-out: pTGI (converted),1.29 µM
same,GI50,COLO 205,1.1 µM
same,LC50,COLO 205,7.08 µM
same,TGI,COLO 205; read-out: pTGI (converted),2.82 µM
same,GI50,NCI-H522,2.57 µM
same,LC50,NCI-H522,26.9 µM
same,TGI,NCI-H522; read-out: pTGI (converted),10 µM
same,LC50,SF-295 [6],17 µM
same,GI50,SF-295 [6]; read-out: GI50,0.011 µM
same,TGI,SF-295 [6]; read-out: TGI,0.052 µM
same,GI50,SF-295 [6]; read-out: pGI50 (converted),0.011 µM
same,TGI,SF-295 [6]; read-out: pTGI (converted),0.0525 µM
same,GI50,A498,4.17 µM
same,LC50,A498,61.7 µM
same,TGI,A498; read-out: pTGI (converted),22.9 µM
same,GI50,PC-3,0.17 µM
same,CC50,PC-3; [9],36.3 µM
same,TGI,PC-3; read-out: pTGI (converted),12.9 µM
same,GI50,M14,0.0158 µM
same,LC50,M14,2.69 µM
same,TGI,M14; read-out: pTGI (converted),0.324 µM
same,GI50,NCI-H23,3.24 µM
same,LC50,NCI-H23,51.3 µM
same,TGI,NCI-H23; read-out: pTGI (converted),18.2 µM
same,GI50,HL-60,0.0158 µM
same,LC50,HL-60,38.9 µM
same,TGI,HL-60; read-out: pTGI (converted),0.129 µM
same,GI50,U-251,0.0251 µM
same,LC50,U-251,49 µM
same,TGI,U-251; read-out: pTGI (converted),22.9 µM
same,GI50,SN12C,6.92 µM
same,LC50,SN12C,61.7 µM
same,TGI,SN12C; read-out: pTGI (converted),25.1 µM
same,GI50,IGROV-1,1.29 µM
same,LC50,IGROV-1,34.7 µM
same,TGI,IGROV-1; read-out: pTGI (converted),11 µM
same,GI50,SK-MEL-5,0.0912 µM
same,LC50,SK-MEL-5,12 µM
same,TGI,SK-MEL-5; read-out: pTGI (converted),2.82 µM
same,IC50,A549 [7],3.7 µg/mL
same,GI50,T47D,3.24 µM
same,CC50,T47D; [9],97.7 µM
same,TGI,T47D; read-out: pTGI (converted),21.9 µM
same,GI50,OVCAR-4,4.27 µM
same,LC50,OVCAR-4,81.3 µM
same,TGI,OVCAR-4; read-out: pTGI (converted),24 µM
same,GI50,BT-549,12.9 µM
same,CC50,BT-549; [9],74.1 µM
same,TGI,BT-549; read-out: pTGI (converted),32.4 µM
same,IC50,SF-295 [8],< 0.01 ng/mL
same,GI50,NCI-H226,4.47 µM
same,LC50,NCI-H226,70.8 µM
same,TGI,NCI-H226; read-out: pTGI (converted),15.8 µM
same,GI50,SR,0.0708 µM
same,LC50,SR,74.1 µM
same,TGI,SR; read-out: pTGI (converted),18.2 µM
same,GI50,RPMI-8226,0.01 µM
same,LC50,RPMI-8226,75.9 µM
same,TGI,RPMI-8226; read-out: pTGI (converted),0.0209 µM
same,GI50,NCI-H460,0.0129 µM
same,LC50,NCI-H460,38.9 µM
same,TGI,NCI-H460; read-out: pTGI (converted),12 µM
same,GI50,SNB-75,0.0151 µM
same,LC50,SNB-75,50.1 µM
same,TGI,SNB-75; read-out: pTGI (converted),0.38 µM
same,GI50,UACC-257,4.27 µM
same,LC50,UACC-257,43.7 µM
same,TGI,UACC-257; read-out: pTGI (converted),18.2 µM
same,GI50,OVCAR-3,3.09 µM
same,LC50,OVCAR-3,21.9 µM
same,TGI,OVCAR-3; read-out: pTGI (converted),7.94 µM
same,GI50,LOX IMVI,0.038 µM
same,LC50,LOX IMVI,38.9 µM
same,TGI,LOX IMVI; read-out: pTGI (converted),17 µM
same,GI50,HOP-62,0.12 µM
same,LC50,HOP-62,40.7 µM
same,TGI,HOP-62; read-out: pTGI (converted),15.1 µM
same,GI50,NCI-H322M,6.17 µM
same,LC50,NCI-H322M,47.9 µM
same,TGI,NCI-H322M; read-out: pTGI (converted),20.9 µM

# Reference: ChEMBL document CHEMBL1151324, “Cytotoxic geranyl stilbenes from Macaranga schweinfurthii” (J Nat Prod, 1998)
